From a polymer gas permeability compilation

| SMILES | H2 permeability | N2 permeability | O2 permeability | CH4 permeability | CO2 permeability |
| --- | --- | --- | --- | --- | --- |
| *C(C(=O)OC(C)C)C(*)C(=O)OC1CCCCC1 (repeat unit) | 41 Barrer | 3 Barrer | 8 Barrer | – | – |
| *c1ccc(Cc2ccc(-n3c(=O)c4cc5c(=O)n(*)c(=O)c5cc4c3=O)cc2)cc1 (repeat unit) | 6.61 Barrer | 0.069 Barrer | 0.398 Barrer | 0.0576 Barrer | 2.5 Barrer |
| *c1ccc2c(c1)-c1nc3ccc(-c4ccc5c(c4)nc4n5C(=O)c5cc(C(c6ccc7c(c6)C(=O)N(*)C7=O)(C(F)(F)F)C(F)(F)F)ccc5-4)cc3n1C2=O (repeat unit) | 376 Barrer | 13 Barrer | 65 Barrer | 8.1 Barrer | 294 Barrer |
| *CC(*)c1ccc(Cl)cc1 (repeat unit) | – | 0.23 Barrer | 1.2 Barrer | 0.26 Barrer | 4.3 Barrer |
| *c1ccc(Oc2ccc(C(C)(C)c3ccc(Oc4ccc(N5C(=O)c6ccc(C(=O)c7ccc8c(c7)C(=O)N(*)C8=O)cc6C5=O)cc4)cc3)cc2)cc1 (repeat unit) | 8.9 Barrer | 0.11 Barrer | 0.54 Barrer | – | 2.8 Barrer |
| *CO* (repeat unit) | – | 0.024 Barrer | 0.09 Barrer | – | 0.45 Barrer |
| *Cc1ccc(C*)c(Cl)c1 (repeat unit) | 0.931 Barrer | 0.006 Barrer | 0.0456 Barrer | – | 0.0867 Barrer |
| *CCOC(=O)c1ccc2cc(C(=O)O*)ccc2c1 (repeat unit) | – | – | 0.0132 Barrer | – | 0.131 Barrer |
| *OC(=O)c1ccc(C(=O)Oc2ccc(C3(c4ccc(O*)cc4)OC(=O)c4ccccc43)cc2)cc1 (repeat unit) | – | 0.41 Barrer | 2.15 Barrer | 0.47 Barrer | 11.7 Barrer |
| *CCOC(=O)c1ccc(C(=O)O*)cc1 (repeat unit) | – | 0.013 Barrer | 0.045 Barrer | 3 Barrer | 0.173 Barrer |
| *Oc1ccc(C2(c3ccc(OC(=O)c4cccc(C(*)=O)c4)cc3)c3ccccc3-c3ccccc32)cc1 (repeat unit) | – | 0.64 Barrer | 3.92 Barrer | 0.71 Barrer | 20.1 Barrer |
| *CC(*)C(=O)OCC (repeat unit) | 60.4 Barrer | 6.46 Barrer | 19 Barrer | 14.9 Barrer | 176 Barrer |
| *Oc1cc2c(cc1O*)C1(CC2(C)C)CC(C)(C)c2cc3c(cc21)Oc1cc2nc4cc5c(cc4nc2cc1O3)C(C)(C)CC51CC(C)(C)c2cc3nc4cc(*)c(*)cc4nc3cc21 (repeat unit) | 860 Barrer | 42 Barrer | 190 Barrer | 62 Barrer | 1100 Barrer |
| *OC(=O)c1ccc(C(=O)Oc2c(C)cc(C(C)(C)c3cc(C)c(O*)c(C)c3)cc2C)cc1 (repeat unit) | – | 1.43 Barrer | 7.3 Barrer | 1.32 Barrer | 4.7 Barrer |
| *Oc1c(Br)cc(C2(c3cc(Br)c(OC(=O)c4cc(C(*)=O)cc(C(C)(C)C)c4)c(Br)c3)OC(=O)c3ccccc32)cc1Br (repeat unit) | 67.4 Barrer | 1.19 Barrer | 7.41 Barrer | 1.09 Barrer | 30.6 Barrer |
| *c1ccc(Oc2ccc(C(c3ccc(Oc4ccc(N5C(=O)c6ccc(C(=O)c7ccc8c(c7)C(=O)N(*)C8=O)cc6C5=O)cc4C(F)(F)F)cc3)(C(F)(F)F)C(F)(F)F)cc2)c(C(F)(F)F)c1 (repeat unit) | 24.6 Barrer | 0.37 Barrer | 2.44 Barrer | 0.189 Barrer | 8.04 Barrer |
| *Oc1ccc(Oc2cccc(*)c2C#N)c(-c2cc(C(F)(F)F)cc(C(F)(F)F)c2)c1 (repeat unit) | 35 Barrer | 1.12 Barrer | 6.6 Barrer | 0.83 Barrer | 19 Barrer |
| *C(=C(*)c1ccc2c(c1)C(C)(C)c1ccccc1-2)c1cccc(F)c1 (repeat unit) | 9900 Barrer | 4200 Barrer | 5900 Barrer | 11000 Barrer | 18000 Barrer |
| *Oc1ccc(-c2c(-c3ccccc3)c(-c3ccccc3)c(-c3ccc4c(c3)Oc3c(C#N)c(*)c(*)c(C#N)c3O4)c(-c3ccccc3)c2-c2ccccc2)cc1O* (repeat unit) | 1000 Barrer | 107 Barrer | 340 Barrer | 192 Barrer | 2390 Barrer |
| *O[Si](*)(C)c1ccccc1 (repeat unit) | – | 8.59 Barrer | 28.8 Barrer | 36 Barrer | 239 Barrer |
| *c1ccc(-c2ccc(C(*)(C(F)(F)F)C(F)(F)F)cc2)cc1 (repeat unit) | 470 Barrer | 41 Barrer | 120 Barrer | 34 Barrer | 470 Barrer |
